In patent publication US5700804A, “Pharmaceutical compounds” (Xenova Limited, priority 1992, dated 1997) one finds Inhibition of PAI-1 in the first S2251 chromogenic substrate assay data, which are given here for six molecules.

This assay concerns the target PAI-1 (Homo sapiens, UniProt P05121). Kind of assay: PAI chromogenic substrate assay (first S2251 assay, tPA/plasminogen system). It is filed as biochemical. Summed up:
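Compound preincubated with PAI-1, then added to a tPA/plasminogen system; residual tPA activity generates plasmin, which cleaves chromogenic substrate S2251, releasing p-nitroaniline read at 405 nm.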

Structures can show the parent of a compound that is named as a salt.

PAI-1, sequence (P05121 24-402): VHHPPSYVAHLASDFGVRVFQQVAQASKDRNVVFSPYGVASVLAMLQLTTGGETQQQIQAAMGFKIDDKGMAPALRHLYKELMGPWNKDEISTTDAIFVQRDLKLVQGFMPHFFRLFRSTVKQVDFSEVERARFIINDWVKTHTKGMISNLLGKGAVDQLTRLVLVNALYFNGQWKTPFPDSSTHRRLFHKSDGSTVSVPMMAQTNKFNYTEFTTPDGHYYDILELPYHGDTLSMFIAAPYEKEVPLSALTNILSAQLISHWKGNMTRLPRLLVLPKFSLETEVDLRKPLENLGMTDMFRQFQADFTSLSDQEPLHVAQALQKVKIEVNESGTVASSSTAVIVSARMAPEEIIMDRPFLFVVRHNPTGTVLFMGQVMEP

Turning to `COC(=O)CCCC(=O)NCc1ccc(/C=c2\[nH]c(=O)/c(=C/c3ccccc3)[nH]c2=O)cc1` [Compound 94, 4-(4-[(3Z,6Z)-6-Benzylidene-2,5-dioxopiperazin-3-ylidene]methylbenzylcarbamoyl) butanoic acid, methyl ester], the Inhibition of PAI-1 in the first S2251 chromogenic substrate assay runs as follows: (Concentration 6.25 μm) 43%; (Concentration 12.5 μm) 76%; (Concentration 25 μm) 83%; (Concentration 50 μm) 62%; (Concentration 100 μm) 31%.
As for `CCOC(=O)CCCCC(=O)NCc1ccc(/C=c2\[nH]c(=O)/c(=C/c3ccccc3)[nH]c2=O)cc1` [Compound 95], the Inhibition of PAI-1 in the first S2251 chromogenic substrate assay runs as follows: (Concentration 6.25 μm) 10%; (Concentration 12.5 μm) 16%; (Concentration 25 μm) 45%; (Concentration 50 μm) 71%; (Concentration 100 μm) 69%.
Regarding `COC(=O)CCCCOc1ccc(/C=c2\[nH]c(=O)/c(=C/c3ccccc3)[nH]c2=O)cc1` [Compound 96, 5-[4-((3Z,6Z)-6-Benzylidene-2,5-dioxopiperazin-3-ylidene)methylphenoxy]pentanoic acid, methyl ester], the Inhibition of PAI-1 in the first S2251 chromogenic substrate assay is 5% (Concentration 6.25 μm); 29% (Concentration 12.5 μm); 47% (Concentration 25 μm); 75% (Concentration 50 μm); 77% (Concentration 100 μm).
Take `O=C(O)CCCCOc1ccc(/C=c2\[nH]c(=O)/c(=C/c3ccccc3)[nH]c2=O)cc1` [Compound 97, 5-[4-((3Z,6Z)-6-Benzylidene-2,5-dioxopiperazin-3-ylidene)methylphenoxy]pentanoic acid]: the Inhibition of PAI-1 in the first S2251 chromogenic substrate assay runs as follows: (Concentration 6.25 μm) 0%; (Concentration 12.5 μm) 0%; (Concentration 25 μm) 73%; (Concentration 50 μm) 24%; (Concentration 100 μm) 0%.
As for `CN(C)CCCOc1ccc(/C=c2\[nH]c(=O)/c(=C/c3ccccc3)[nH]c2=O)cc1` [Compound 98], the Inhibition of PAI-1 in the first S2251 chromogenic substrate assay reads like this: (Concentration 6.25 μm) 4%; (Concentration 12.5 μm) 67%; (Concentration 25 μm) 74%; (Concentration 50 μm) 71%; (Concentration 100 μm) 72%.
As for `CN(C)CCOc1ccc(/C=c2\[nH]c(=O)/c(=C/c3ccccc3)[nH]c2=O)cc1` [Compound 99, (3Z,6Z)-6-Benzylidene-3-(4-(2-N,N-dimethylaminoethoxy)benzylidene)-2,5-piperazinedione, hydrochloride], the Inhibition of PAI-1 in the first S2251 chromogenic substrate assay (Concentration 2.5 μm) was 0%; the Inhibition of PAI-1 in the first S2251 chromogenic substrate assay (Concentration 5 μm) was found to be 0%; the Inhibition of PAI-1 in the first S2251 chromogenic substrate assay (Concentration 10 μm) amounted to 17%; the Inhibition of PAI-1 in the first S2251 chromogenic substrate assay (Concentration 20 μm) worked out at 48%; the Inhibition of PAI-1 in the first S2251 chromogenic substrate assay (Concentration 40 μm) was found to be 68%.
